Source: article PMC6149825, “PTP1B Inhibitors from the Entomogenous Fungi Isaria fumosorosea” (Molecules : A Journal of Synthetic Chemistry and Natural …, 2017)
Read-outs that look alike come from different tables or passages of the source.

Biological target: T1, PTP1B (Homo sapiens, UniProt P18031)
T1 sequence (P18031 1-435): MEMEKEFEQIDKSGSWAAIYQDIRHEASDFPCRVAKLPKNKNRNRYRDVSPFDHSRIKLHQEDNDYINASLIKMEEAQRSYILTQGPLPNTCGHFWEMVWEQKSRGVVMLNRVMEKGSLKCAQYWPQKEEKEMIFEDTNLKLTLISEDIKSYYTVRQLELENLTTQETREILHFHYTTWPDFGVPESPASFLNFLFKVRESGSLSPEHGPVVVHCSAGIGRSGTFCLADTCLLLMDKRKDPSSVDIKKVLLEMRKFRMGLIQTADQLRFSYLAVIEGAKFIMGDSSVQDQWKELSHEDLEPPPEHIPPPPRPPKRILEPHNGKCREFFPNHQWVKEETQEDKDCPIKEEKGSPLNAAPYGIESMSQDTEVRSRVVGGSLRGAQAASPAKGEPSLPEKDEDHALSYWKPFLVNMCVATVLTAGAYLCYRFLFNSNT
Assay: PTP1B inhibition assay (hydrolysis of p-nitrophenyl phosphate, 96-well plate)
Method: PTP1B activity was measured as the rate of hydrolysis of p-nitrophenyl phosphate (pNPP) in a 96-well microtiter plate format [13]. […] Each experiment was performed in triplicate, and IC50 data were derived from three independent experiments.

Molecule | IC50 | IC50 (read-out: PTP1B inhibitory activity IC50, in vitro, pNPP substrate, triplicate, three independent experiments)
2-carboxymethyl-4-(3′-hydroxybutyl)furan [Compound 5] |  | > 1000 µM
CCC(C)CC(C)C=C(C)C=CC=CC=C(C)C(O)=C1C(=O)NC(Cc2ccc(O)cc2)C1=O (centres unmarked) [Compound 1, fumosorinone A] | 3.24 ± 0.37 µM | 

Second part, led by results:

IC50 | Molecule | IC50 (read-out: PTP1B inhibitory activity IC50, in vitro, pNPP substrate, triplicate, three independent experiments)
> 1000 µM | CC1CCC2(CC3OC(=O)CC3O2)O1 (centres unmarked) [Compound 4, Cepharosporolides F] | 
> 1000 µM | C[C@@H]1CCC(=O)C[C@H](O)[C@@H](O)CC(=O)O1 [Compound 2, Cepharosporolides C] | 
> 1000 µM | C[C@@H]1CC[C@]2(C[C@@H]3OC(=O)C[C@@H]3O2)O1 [Compound 3, Cepharosporolides E] | 
